Results published in BindingDB's records for patent US20250313563 (The Broad Institute, 2025).
Values joined by “and” are separate entries in the source; they are usually repeats but may differ in a detail not shown here. Equal values may be shown once.

Tests used:
[1] = target: Glycogen synthase kinase-3 beta (Homo sapiens, UniProt P49841); test: TR-FRET Assay
In short: (§1)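 Enzyme and test compound were first incubated together for 30 minutes in assay buffer. The kinase reaction followed and was stopped with EDTA. The pSer641 signal was read by time-resolved FRET.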

[2] = target: Glycogen synthase kinase-3 alpha (Homo sapiens, UniProt P49840); test: TR-FRET Assay
Glycogen synthase kinase-3 alpha, sequence (P49840 whole entry): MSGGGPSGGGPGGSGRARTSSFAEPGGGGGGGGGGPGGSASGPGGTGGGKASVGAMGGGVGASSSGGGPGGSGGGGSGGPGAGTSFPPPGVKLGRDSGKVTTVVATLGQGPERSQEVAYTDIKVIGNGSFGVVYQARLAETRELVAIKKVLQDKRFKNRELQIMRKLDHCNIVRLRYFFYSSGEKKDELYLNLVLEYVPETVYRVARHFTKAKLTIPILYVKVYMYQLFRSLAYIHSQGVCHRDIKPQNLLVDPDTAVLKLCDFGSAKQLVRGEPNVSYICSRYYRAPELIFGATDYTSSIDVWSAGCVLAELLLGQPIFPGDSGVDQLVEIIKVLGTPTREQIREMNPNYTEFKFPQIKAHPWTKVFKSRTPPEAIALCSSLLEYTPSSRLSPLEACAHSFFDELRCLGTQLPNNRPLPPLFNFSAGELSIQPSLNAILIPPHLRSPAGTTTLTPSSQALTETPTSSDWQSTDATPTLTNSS
In short: as §1

Glycogen synthase kinase-3 beta, sequence (P49841 whole entry): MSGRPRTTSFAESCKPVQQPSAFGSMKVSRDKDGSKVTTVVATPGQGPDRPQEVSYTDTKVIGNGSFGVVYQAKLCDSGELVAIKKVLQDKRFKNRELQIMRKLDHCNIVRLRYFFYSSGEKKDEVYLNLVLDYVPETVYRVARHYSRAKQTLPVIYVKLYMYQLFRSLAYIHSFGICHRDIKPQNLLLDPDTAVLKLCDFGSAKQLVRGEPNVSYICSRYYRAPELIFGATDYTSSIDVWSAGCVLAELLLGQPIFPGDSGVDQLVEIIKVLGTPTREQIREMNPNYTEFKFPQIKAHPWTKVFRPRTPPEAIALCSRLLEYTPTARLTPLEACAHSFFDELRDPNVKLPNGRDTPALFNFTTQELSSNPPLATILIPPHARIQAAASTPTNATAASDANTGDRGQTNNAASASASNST

| IC50 [1] | IC50 [2] | SMILES |
| --- | --- | --- |
| 1000 to 5000 nM | 100 to 1000 nM | CC[C@]1(c2cccc(-c3cn(C)nc3C(C)C)c2)C2=C(CC(C)(C)CC2=O)NC2N=NC(C)=C21 (stereo partly specified) [US20250313563, Compound 913040] |
| > 5000 nM | > 5000 nM | CC[C@]1(c2ccccc2)C2=C(N=NC2)NC2=C1C(=O)[C@H]1CC[C@@H]2C1 [US20250313563, Compound 791268] |
| 100 to 1000 nM | 100 to 1000 nM | CC[C@]1(c2cccc(C3=CN=NC3)c2)C2=C(CC(C)(C)CC2=O)NC2N=NC(C)=C21 (stereo partly specified) [US20250313563, Compound 913044] |
| 1000 to 5000 nM | 100 to 1000 nM | CCN(c1cccnc1)c1cccc([C@@]2(CC)C3=CN=NC3NC3=C2C(=O)CC(C)(C)C3)c1 (stereo partly specified) [US20250313563, Compound 917088] |
| 1000 to 5000 nM | 100 to 1000 nM | CC[C@@]1(c2cccc(-c3ccnc(OC)c3)c2)C2=C(CC(C)(C)CC2=O)NC2N=NC(C)=C21 (stereo partly specified) [US20250313563, Compound 913016] |
| < 100 nM | < 100 nM | CCC1(c2cccc(C3=CN=NC3)c2)C2=C(CC(C)(C)NC2=O)NC2N=NC(C)=C21 (stereo unspecified) [US20250313563, Compound 945459] |
| > 5000 nM | 1000 to 5000 nM | CCc1cc(-c2cccc([C@@]3(CC)C4=CN=NC4NC4=C3C(=O)NC(C)(C)C4)c2)ccn1 (stereo partly specified) [US20250313563, Compound 948360] |
| 100 to 1000 nM | 100 to 1000 nM | CC1N=NC2=C1C1(CCOCC1)C1=C(CC(C)(C)C(F)C1=O)N2 (stereo unspecified) [US20250313563, Compound 912072] |
| > 5000 nM | 1000 to 5000 nM | CC[C@@]1(c2cccc(-c3ccnc(C)c3)c2)C2=C(N=NC2)NC2=C1C(=O)C(C)(C)C2 [US20250313563, Compound 950283] |
| > 5000 nM | 1000 to 5000 nM | CCC1(c2cccc(C3CN(C(C)=O)C3)c2)C2=CN=NC2NC2=C1C(=O)CC(C)(C)C2 (stereo unspecified) [US20250313563, Compound 948779] |
| 100 to 1000 nM and > 5000 nM | < 100 nM and 1000 to 5000 nM | CC[C@@]1(c2cccc(-c3cnn4ccncc34)c2)C2=CN=NC2NC2=C1C(=O)NC(C)(C)C2 (stereo partly specified) [US20250313563, Compound 952565] |
| > 5000 nM | > 5000 nM | CC[C@]1(c2cccc(-c3cnn4ccncc34)c2)C2=CN=NC2NC2=C1C(=O)NC(C)(C)C2 (stereo partly specified) [US20250313563, Compound 949263] |
| < 100 nM | < 100 nM | CC1(C)CC(=O)C2=C(C1)NC1=C(CN=N1)C21COC2(CN(C(=O)C3CCCC3)C2)C1 (stereo unspecified) [US20250313563, Compound 917232] |
| 1000 to 5000 nM | 100 to 1000 nM | CC[C@@]1(c2cccc(N(C)c3nccc(OC)n3)c2)C2=CN=NC2NC2=C1C(=O)CC(C)(C)C2 (stereo partly specified) [US20250313563, Compound 947337] |
| 100 to 1000 nM | 100 to 1000 nM | COc1cccc(C2(C)C3=C(N=NC3)NC3=C2C(=O)CC(C)(C)C3)c1 (stereo unspecified) [US20250313563, Compound 792342] |
| 100 to 1000 nM | < 100 nM | CC1(C)CCC2(CC1)C1=C(N=NC1)NC1=C2C(=O)CC(C)(C)C1 [US20250313563, Compound 884107] |
| 100 to 1000 nM | < 100 nM | CC[C@]1(c2cccc(C(F)(F)F)c2)C2=C(N=NC2)NC2=C1C(=O)N(Cc1ccccc1)[C@H]2C [US20250313563, Compound 930331] |
| < 100 nM | < 100 nM | CCC1(c2cccc(-c3cn(C)nc3C)c2)C2=CN=NC2NC2=C1C(=O)NC(C)(C)C2 (stereo unspecified) [US20250313563, Compound 944030] |
| < 100 nM | < 100 nM | CC1(C)CC(=O)C2=C(C1)NC1=C(CN=N1)C21COC2(CN(C(=O)Cc3ccccc3)C2)C1 (stereo unspecified) [US20250313563, Compound 947306] |
| < 100 nM | < 100 nM | CC1(C)CC(=O)C2=C(C1)NC1=C(CN=N1)C21COC2(CN(C(=O)C3(F)CCC3)C2)C1 (stereo unspecified) [US20250313563, Compound 947279] |
| < 100 nM and 1000 to 5000 nM | < 100 nM and 100 to 1000 nM | CC1(C)CC(=O)C2=C(C1)NC1=C(CN=N1)C21CC2(CCCC2)C1 [US20250313563, Compound 874477] |
| > 5000 nM | 1000 to 5000 nM | CC1(C)CC(=O)C2=C(C1)NC1=C(CN=N1)[C@@]2(C)c1cc(C(F)(F)F)ccc1F [US20250313563, Compound 816797] |
| < 100 nM and 1000 to 5000 nM | < 100 nM and 1000 to 5000 nM | Cn1cc(S(=O)(=O)N2CC[C@]3(C2)C2=C(N=NC2)NC2=C3C(=O)CC(C)(C)C2)cn1 [US20250313563, Compound 951726] |
| 100 to 1000 nM | < 100 nM | CC[C@@]1(c2cccc(-c3ccnc(C)c3F)c2)C2=CN=NC2NC2=C1C(=O)NC(C)(C)C2 (stereo partly specified) [US20250313563, Compound 948306] |
| < 100 nM | < 100 nM | CC[C@]1(c2cccc(S(=O)(=O)C3CC3)c2)C2=CN=NC2NC2=C1C(=O)NC(C)(C)C2 (stereo partly specified) [US20250313563, Compound 947803] |
| < 100 nM | < 100 nM | CCC1(c2cccc(-c3cncn3C(C)C)c2)C2=CN=NC2NC2=C1C(=O)CC(C)(C)C2 (stereo unspecified) [US20250313563, Compound 944026] |
| < 100 nM | < 100 nM | CCC1(c2cccc(C3=CN=NC3)c2)C2=C(CC(C)(C)CC2=O)NC2N=NC(C)=C21 (stereo unspecified) [US20250313563, Compound 883994] |

| IC50 [1] | IC50 [2] | SMILES |
| --- | --- | --- |
| 1000 to 5000 nM | 100 to 1000 nM | CC[C@]1(c2cccc(-c3cnn(C(C)C)c3F)c2)C2=CN=NC2NC2=C1C(=O)NC(C)(C)C2 (stereo partly specified) [US20250313563, Compound 949267] |
| 100 to 1000 nM | < 100 nM | CCC1(c2cccc(N(C)c3cccc(OC)n3)c2)C2=CN=NC2NC2=C1C(=O)CC(C)(C)C2 (stereo unspecified) [US20250313563, Compound 913121] |
| 1000 to 5000 nM | 1000 to 5000 nM | CC1(C)CC(=O)C2=C(C1)NC1=C(CN=N1)C21CN(C2CCCCC2)C1 [US20250313563, Compound 929446] |
| 100 to 1000 nM | 100 to 1000 nM | CCC1(c2cccc(N3CCCCCC3)c2)C2=CN=NC2NC2=C1C(=O)CC(C)(C)C2 (stereo unspecified) [US20250313563, Compound 885088] |
| 100 to 1000 nM | < 100 nM | CC1(C)CC(=O)C2=C(C1)NC1=C(CN=N1)C21COC2(CN(C(=O)C3CC(C)(C)C3)C2)C1 (stereo unspecified) [US20250313563, Compound 947282] |
| < 100 nM | < 100 nM | CCC1(c2cccc(S(=O)(=O)C3CC3)c2)C2=C(CC(C)(C)NC2=O)NC2=C1C(C(F)(F)F)N=N2 (stereo unspecified) [US20250313563, Compound 947859] |
| < 100 nM and 100 to 1000 nM | < 100 nM | CC[C@]1(c2cccc(-c3cc(C)ncc3C)c2)C2=C(CC(C)(C)CC2=O)NC2N=NC(C)=C21 (stereo partly specified) [US20250313563, Compound 913050] |
| < 100 nM | < 100 nM | CCC1(c2cccc(N(C)c3cnccn3)c2)C2=CN=NC2NC2=C1C(=O)CC(C)(C)C2 (stereo unspecified) [US20250313563, Compound 902971] |
| < 100 nM | < 100 nM | CC1(C)CC(=O)C2=C(NC3=C(CN=N3)[C@]23CC[C@@H](C(F)(F)F)CC3)[C@@H]1F [US20250313563, Compound 918284] |
| 100 to 1000 nM | 100 to 1000 nM | CC[C@@]1(c2cccc(S(=O)(=O)C3CC3)c2)C2=C(CC(C)(C)NC2=O)NC2N=NC(C(F)(F)F)=C21 (stereo partly specified) [US20250313563, Compound 948776] |
| 100 to 1000 nM | < 100 nM | CC[C@]1(c2ccccc2)C2=CN=NC2NC2=C1C(=O)CC1(CC1)C2 (stereo partly specified) [US20250313563, Compound 790615] |
| 1000 to 5000 nM and > 5000 nM | 1000 to 5000 nM and > 5000 nM | CC[C@@]1(c2cccc(-c3ccncc3OC)c2)C2=CN=NC2NC2=C1C(=O)CC(C)(C)C2 (stereo partly specified) [US20250313563, Compound 945471] |
| 1000 to 5000 nM | 100 to 1000 nM | CC1(C)CC(=O)C2=C(NC3=C(CN=N3)C23CCOCC3)[C@@H]1F [US20250313563, Compound 883834] |
| 100 to 1000 nM | < 100 nM and 100 to 1000 nM | CC[C@]1(c2cccc(C(F)(F)F)c2)C2=C(N=NC2)NC2=C1C(=O)N(Cc1ccccc1)C2 [US20250313563, Compound 929388] |
| 1000 to 5000 nM | > 5000 nM | COc1cncc(F)c1-c1cccc([C@@]2(C)C3=C(CC(C)(C)CC3=O)NC3=C2C(CC(C)(C)C)N=N3)c1 (stereo partly specified) [US20250313563, Compound 108956] |
| 100 to 1000 nM | 100 to 1000 nM | CCC1(c2cccc(N3CCCC[C@@H]3C)c2)C2=CN=NC2NC2=C1C(=O)CC(C)(C)C2 (stereo partly specified) [US20250313563, Compound 885217] |
| < 100 nM | < 100 nM | CCC1(c2cccc(-c3ccn(C)n3)c2)C2=C(CC(C)(C)CC2=O)NC2N=NC(C)=C21 (stereo unspecified) [US20250313563, Compound 883999] |
| < 100 nM | < 100 nM | CCC1(c2cccc(-c3cn(C)nc3C)c2)C2=CN=NC2NC2=C1C(=O)CC(C)(C)C2 (stereo unspecified) [US20250313563, Compound 926840] |
| > 5000 nM | 1000 to 5000 nM | CC[C@]1(c2cccc(-c3ccnc(C)c3)c2)C2=CN=NC2NC2=C1C(=O)N[C@@H](C)C2 (stereo partly specified) [US20250313563, Compound 926299] |
| > 5000 nM | 1000 to 5000 nM | CC[C@@]1(c2cccc(-c3ccnn3C)c2)C2=CN=NC2NC2=C1C(=O)NC1(CCOCC1)C2 (stereo partly specified) [US20250313563, Compound 948526] |
| 100 to 1000 nM and 1000 to 5000 nM | < 100 nM and 100 to 1000 nM | CC1(C)CC(=O)C2=C(C1)NC1=C(CN=N1)C21CCN(S(=O)(=O)c2ccccc2C(F)F)CC1 [US20250313563, Compound 945657] |
| 1000 to 5000 nM | 100 to 1000 nM | CC[C@@]1(c2cccc(-c3cnn(-c4ccncn4)c3)c2)C2=CN=NC2NC2=C1C(=O)NC(C)(C)C2 (stereo partly specified) [US20250313563, Compound 952016] |
| < 100 nM | < 100 nM | CCC1(c2ccccc2)C2=C(CC(C)(C)CC2=O)NC2N=NC(Br)=C21 (stereo unspecified) [US20250313563, Compound 789459] |
| < 100 nM | < 100 nM | CC[C@]1(c2cccc(N(C)C(C)=O)c2)C2=CN=NC2NC2=C1C(=O)CC(C)(C)C2 (stereo partly specified) [US20250313563, Compound 810358] |
| 1000 to 5000 nM | 100 to 1000 nM | CC[C@@]1(c2cccc(-c3ccncc3F)c2)C2=CN=NC2NC2=C1C(=O)CC(C)(C)C2 (stereo partly specified) [US20250313563, Compound 943519] |
| 1000 to 5000 nM | 100 to 1000 nM | CC[C@@]1(c2cccc(-c3cc(C4CCCC4)nn3C)c2)C2=CN=NC2NC2=C1C(=O)NC(C)(C)C2 (stereo partly specified) [US20250313563, Compound 952023] |
